The values below come from US9434711B2 (Janssen Pharmaceutica, NV, priority 2007, dated 2016).

The target of this experiment is canine TRPM8 (Canis lupus familiaris, UniProt Q1A7N1). Put plainly: In Vitro Canine TRPM8 Functional Assay (Ca2+ fluorescence, icilin activation). Conditions: for IC50: read-out: IC50; for inhibition at 0.2 µM: read-out: % Inh @ 0.2; for inhibition at 0.5 µM: compound at 0.5 μM, read-out: % Inh @ 0.5. It is filed as cell-based. Summed up:
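Cells (HEK293, stable canine TRPM8) are seeded 24 h before assay. They are then dye-loaded with Calcium 3 at 37 °C followed by room temperature. Compound is added and monitored for 5 min, after which icilin (~80% maximal response) is added.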

[1] abbreviates: HEK293 cells stably expressing canine TRPM8, icilin activation, eight-point dose-response.
Where [2] appears, read: compound at 0.2 μM, canine TRPM8, icilin activation.
[3] abbreviates: canine TRPM8, icilin activation.
Setting [4] is: 0.2 μM compound, HEK293 cells stably expressing canine TRPM8, icilin activation.

SMILES strings stand for the structures. Read-outs that look alike come from different tables or passages of the source.

Sequence of canine TRPM8 (Q1A7N1 1-1104): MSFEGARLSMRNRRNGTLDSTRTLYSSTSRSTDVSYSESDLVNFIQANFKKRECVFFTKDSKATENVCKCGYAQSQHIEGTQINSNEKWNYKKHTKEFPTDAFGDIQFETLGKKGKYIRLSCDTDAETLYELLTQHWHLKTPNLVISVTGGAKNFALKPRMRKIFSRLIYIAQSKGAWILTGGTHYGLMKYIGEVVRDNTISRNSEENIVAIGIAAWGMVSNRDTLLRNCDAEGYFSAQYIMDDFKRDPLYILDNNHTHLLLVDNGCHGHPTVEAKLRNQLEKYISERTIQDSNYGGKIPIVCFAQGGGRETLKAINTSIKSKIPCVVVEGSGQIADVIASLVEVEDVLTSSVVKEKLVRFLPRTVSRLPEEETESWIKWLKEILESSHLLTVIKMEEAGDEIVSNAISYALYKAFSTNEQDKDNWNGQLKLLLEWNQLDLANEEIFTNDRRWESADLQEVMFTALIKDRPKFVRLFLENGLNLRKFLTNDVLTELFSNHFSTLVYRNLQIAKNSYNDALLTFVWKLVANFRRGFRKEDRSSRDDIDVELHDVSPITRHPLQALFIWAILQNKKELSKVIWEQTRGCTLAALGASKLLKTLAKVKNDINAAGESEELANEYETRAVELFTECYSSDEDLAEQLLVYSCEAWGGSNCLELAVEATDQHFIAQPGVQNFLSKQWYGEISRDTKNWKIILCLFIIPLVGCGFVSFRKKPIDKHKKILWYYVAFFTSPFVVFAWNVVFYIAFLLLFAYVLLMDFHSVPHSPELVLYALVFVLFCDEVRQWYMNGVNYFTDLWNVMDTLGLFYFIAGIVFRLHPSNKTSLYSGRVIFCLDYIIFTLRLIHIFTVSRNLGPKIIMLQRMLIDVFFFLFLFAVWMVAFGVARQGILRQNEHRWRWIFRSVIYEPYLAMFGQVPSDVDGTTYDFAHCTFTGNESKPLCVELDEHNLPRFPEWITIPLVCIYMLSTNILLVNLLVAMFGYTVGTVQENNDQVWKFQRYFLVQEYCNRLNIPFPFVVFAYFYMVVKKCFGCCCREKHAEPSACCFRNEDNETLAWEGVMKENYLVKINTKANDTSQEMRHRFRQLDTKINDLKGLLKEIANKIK

In the case of `CS(=O)(=O)Nc1c(Cl)cc(S(=O)(=O)N(CCCCC(F)(F)F)c2sc3ccccc3c2Cl)cc1Cl` [Compound 682, 3,5-Dichloro-N-(3-chloro-benzo[b]thiophen-2-yl)-4-methanesulfonylamino-N-(5,5,5-trifluoro-pentyl)-benzenesulfonamide], the 50% inhibitory concentration (IC50) under setting [1] amounted to 0.0317 µM. The inhibition at 0.2 µM under setting [2] amounted to 101%.

`CC(=O)c1c(N(CCC(F)(F)F)S(=O)(=O)c2ccc(C(=O)O)cc2)sc2ccccc12` [Compound 385, N-(3-Acetyl-benzo[b]thiophen-2-yl)-N-(3,3,3-trifluoro-propyl)-4-carboxy-benzenesulfonamide]: under setting [2], the inhibition at 0.2 µM is 54%.

Consider `Cc1c(N(Cc2ccc(S(=O)(=O)C(F)(F)F)cc2)S(=O)(=O)c2ccc(C(=O)O)cc2)sc2ccccc12` [Compound 494, N-(3-Methyl-benzo[b]thiophen-2-yl)-N-(4-trifluoromethylsulfone-benzyl)-4-carboxy-benzenesulfonamide], for which, under setting [1], the IC50 was found to be 0.0009 µM. The “% Inh @ 0.2 (μM)” value under setting [2] stood at 101%.

As to `CCCCCCN(c1sc2ccccc2c1Br)S(=O)(=O)c1ccc(C(=O)O)cc1` [Compound 393, N-(3-Bromo-benzo[b]thiophen-2-yl)-N-(hexyl)-4-carboxy-benzenesulfonamide], the IC50 under setting [1] came out at 0.005 µM. Moreover, under setting [2], the inhibition at 0.2 µM came out at 95%.

Turning to `CCCCN(c1sc2ccccc2c1C(C)(C)O)S(=O)(=O)c1ccc(C(=O)O)cc1` [Compound 343, N-(Butyl)-N-(3-(1-hydroxy-1-methyl-ethyl)-benzo[b]thiophen-2-yl)-4-carboxy-benzenesulfonamide], the half-maximal inhibitory concentration (IC50) under setting [1] was found to be 0.019 µM. Also, under setting [2], the inhibition at 0.2 µM was 98%.

As for `COc1ccc(S(=O)(=O)N(Cc2ccc(F)c(C(F)(F)F)c2)c2sc3ccccc3c2Br)cc1` [Compound 182, N-(3-Bromo-benzo[b]thiophen-2-yl)-N-(4-fluoro-3-trifluoromethyl-benzyl)-4-methoxy-benzenesulfonamide], the IC50 under setting [1] came to 0.01 µM. Under setting [3], the inhibition at 0.5 µM came to 99%.

`O=S(=O)(c1ccccc1)N(Cc1ccc(F)c(C(F)(F)F)c1)c1sc2ncccc2c1Cl` [Compound 813, N-(3-Chloro-thieno[2,3-b]pyridin-2-yl)-N-(4-fluoro-3-trifluoromethyl-benzyl)-benzenesulfonamide]: the inhibition at 0.2 µM under setting [4] amounted to 90%. Also, where the note is “HEK293 cells stably expressing canine TRPM8, icilin activation, average of two or more determinations”, the IC50 stood at 0.028 µM.

As to `COC(=O)CCS(=O)(=O)N(CCCC(F)(F)F)c1sc2ccccc2c1C` [Compound 602, N-(3-Methyl-benzo[b]thiophen-2-yl)-N-(4,4,4-trifluoro-butyl)-2-carbomethoxy-ethanesulfonamide], under setting [1], the IC50 came out at 0.0221 µM. Besides, the inhibition at 0.2 µM under setting [2] stood at 101%.

Regarding `Cc1c(N(CCCC(F)(F)F)S(=O)(=O)c2ccc3[nH]c(=O)oc3c2)sc2ccccc12` [Compound 384, N-(3-Methyl-benzo[b]thiophen-2-yl)-N-(4,4,4-trifluoro-butyl)-2-oxo-2,3-dihydro-benzooxazol-6-yl-sulfonamide], the IC50 under setting [1] amounted to 0.017 µM. Also, under setting [2], the inhibition at 0.2 µM is 96%.

As for `COC(=O)c1ccc(S(=O)(=O)N(CCF)c2cc3ccccc3s2)cc1` [Compound 843, N-(Benzo[b]thiophen-2-yl)-N-(2-fluoro-ethyl)-4-carbomethoxy-benzenesulfonamide], the inhibition at 0.2 µM under setting [4] amounted to 31%.

As for `COC(=O)c1ccc(S(=O)(=O)N(CCCCC(F)(F)F)c2sc3ccccc3c2C(C)C)cc1` [Compound 565, N-(3-Isopropyl-benzo[b]thiophen-2-yl)-N-(5,5,5-trifluoro-pentyl)-4-carbomethoxy-benzenesulfonamide], under setting [1], the concentration for half-maximal inhibition (IC50) was 0.117 µM. In addition, the inhibition at 0.2 µM under setting [2] turned out to be 74.4%.

With `COC(=O)c1ccc(S(=O)(=O)N(Cc2ccc(F)c(C(F)(F)F)c2)c2sc3ccccc3c2C)cc1` [Compound 138, N-(3-Methyl-benzo[b]thiophen-2-yl)-N-(4-fluoro-3-trifluoromethyl-benzyl)-4-carbomethoxy-benzenesulfonamide], under setting [1], the half-maximal inhibitory concentration (IC50) is 0.013 µM. Further, the inhibition at 0.2 µM under setting [2] was found to be 83%.

Turning to `O=S(=O)(c1ccccc1)N(c1cc2ccccc2s1)C1CCCCC1` [Compound 119, N-(Benzo[b]thiophen-2-yl)-N-(cyclohexyl)-benzenesulfonamide], the IC50 under setting [1] turned out to be 0.134 µM. The inhibition at 0.5 µM under setting [3] is 93%.

As to `O=S(=O)(c1ccccc1)N(Cc1ccc(OC(F)(F)F)cc1)c1sc2ccccc2c1Cl` [Compound 6, N-(3-Chloro-benzo[b]thiophen-2-yl)-N-(4-trifluoromethoxy-benzyl)-benzenesulfonamide], the IC50 under setting [1] was 0.0113 µM. The inhibition at 0.5 µM under setting [3] worked out at 99%.

For the compound `CS(=O)(=O)Nc1ccc(S(=O)(=O)N(Cc2ccc(F)c(C(F)(F)F)c2)c2sc3ccccc3c2Br)cc1` [Compound 660, N-(3-Bromo-benzo[b]thiophen-2-yl)-N-(4-fluoro-3-trifluoromethyl-benzyl)-4-methanesulfonylamino-benzenesulfonamide], under setting [1], the IC50 worked out at 0.0112 µM. For the same compound, the inhibition at 0.2 µM under setting [2] came out at 100%.

Take `CC(C)(O)C1=C(N(Cc2ccc(F)c(C(F)(F)F)c2)S(=O)(=O)c2ccccc2)S(=O)(=O)c2ccccc21` [Compound 463, N-(4-Fluoro-3-trifluoromethyl-benzyl)-N-[3-(1-hydroxy-1-methyl-ethyl)-1,1-dioxo-benzo[b]thiophen-2-yl]-benzenesulfonamide]: under setting [1], the IC50 came to 0.026 µM. For the same compound, under setting [2], the inhibition at 0.2 µM stood at 101%.

Turning to `O=S(=O)(c1cccc(-c2nnn[nH]2)c1)N(Cc1ccc(F)c(C(F)(F)F)c1)c1sc2ccccc2c1Cl` [Compound 578, N-(3-Chloro-benzo[b]thiophen-2-yl)-N-(4-fluoro-3-trifluoromethyl-benzyl)-3-(1H-tetrazol-5-yl)-benzenesulfonamide], under setting [1], the IC50 is 0.0267 µM. Under setting [2], the inhibition at 0.2 µM came to 91%.

Turning to `CN1CCN(C2=C(N(CCC3CC3)S(=O)(=O)c3ccccc3)S(=O)(=O)c3ccccc32)CC1` [Compound 645, N-(2-Cyclopropyl-ethyl)-N-[3-(4-methyl-piperazin-1-yl)-1,1-dioxo-1H-1λ^6-benzo[b]thiophen-2-yl]-benzenesulfonamide], the inhibition at 0.2 µM under setting [2] came to 20%.

As to `O=S(=O)(c1ccccc1)N(Cc1ccccc1)c1cc2ccccc2s1` [Compound 59, N-(Benzo[b]thiophen-2-yl)-N-(benzyl)-benzenesulfonamide], under setting [1], the IC50 came to 0.0445 µM. The inhibition at 0.5 µM under setting [3] was 98%.

With `Cc1c(N(Cc2cccc(OC(F)(F)F)c2)S(=O)(=O)CCCn2ccnc2)sc2ccccc12` [Compound 778, N-(3-Methyl-benzo[b]thiophen-2-yl)-N-(3-trifluoromethoxy-benzyl)-3-imidazol-1-yl-propane-1-sulfonamide], the concentration for half-maximal inhibition (IC50) under setting [1] worked out at 0.107 µM. Further, the inhibition at 0.2 µM under setting [2] came to 87%.

As for `CCS(=O)(=O)N(CCOC(C)(C)C)c1sc2ccccc2c1C(C)O` (centres unmarked) [Compound 283, N-(2-tert-Butoxyethyl)-N-(3-(1-hydroxyethyl)benzo[b]thiophen-2-yl)-ethanesulfonamide], the IC50 under setting [1] came to 0.092 µM. Moreover, the inhibition at 0.2 µM under setting [2] is 82%.

With `CC(C)(C)OC(=O)N1CCC(CN(c2sc3ccccc3c2Cl)S(=O)(=O)c2ccccc2)CC1` [Compound 90, N-(3-Chloro-benzo[b]thiophen-2-yl)-N-{[1-(carbo-tert-butoxy)piperidin-4-yl]-methyl}-benzenesulfonamide], the IC50 under setting [1] worked out at 0.021 µM. The inhibition at 0.5 µM under setting [3] amounted to 99%.

`O=S(=O)(CC(F)(F)F)N(Cc1ccc(F)c(C(F)(F)F)c1)c1sc2ccccc2c1Br` [Compound 702, N-(3-Bromo-benzo[b]thiophen-2-yl)-N-(4-fluoro-3-trifluoromethyl-benzyl)-2,2,2-trifluoro-ethanesulfonamide]: the 50% inhibitory concentration (IC50) under setting [1] stood at 0.023 µM. Also, the inhibition at 0.2 µM under setting [2] was found to be 99%.

In the case of `CCCCN(C1=Cc2ccccc2S1(=O)=O)S(=O)(=O)c1ccc(C(=O)O)cc1` [Compound 432, N-(Butyl)-N-(1,1-dioxo-1H-benzo[b]thiophen-2-yl)-4-carboxy-benzenesulfonamide], under setting [2], the inhibition at 0.2 µM came to 42%.

For the compound `Cc1c(N(CCCCC(F)(F)F)S(=O)(=O)c2ccccc2)sc2ccccc12` [Compound 617, N-(3-Methyl-benzo[b]thiophen-2-yl)-N-(5,5,5-trifluoro-pentyl)-benzenesulfonamide], the IC50 under setting [1] is 0.0074 µM. Also, the inhibition at 0.2 µM under setting [2] is 101%.

In the case of `O=c1[nH]c(-c2ccc(S(=O)(=O)N(CCCCC(F)(F)F)c3cc4ccccc4s3)cc2)ns1` [Compound 687, N-(Benzo[b]thiophen-2-yl)-N-(5,5,5-trifluoro-pentyl)-4-(5-oxo-4,5-dihydro-[1,2,4]thiadiazol-3-yl)-benzenesulfonamide], under setting [1], the IC50 came to 0.0569 µM. Further, under setting [2], the inhibition at 0.2 µM worked out at 74.5%.

Take `O=S(=O)(c1ccccc1)N(CC12CC3CC(CC(C3)C1)C2)c1sc2ccccc2c1Br` [Compound 249, N-(Adamant-1-ylmethyl)-N-(3-bromo-benzo[b]thiophen-2-yl)-benzenesulfonamide]: the IC50 under setting [1] is 0.0009 µM. Besides, the inhibition at 0.2 µM under setting [2] is 97%.

As to `CC1=C(N(CCC2CC2)S(=O)(=O)c2ccc(C(=O)O)cc2)S(=O)(=O)c2ccccc21` [Compound 632, N-(2-Cyclopropyl-ethyl)-N-(3-methyl-1,1-dioxo-benzo[b]thiophen-2-yl)-4-carboxy-benzenesulfonamide], the inhibition at 0.2 µM under setting [2] was 12%.

Turning to `Cc1nn(C)c(C)c1S(=O)(=O)N(Cc1ccc(F)c(C(F)(F)F)c1)c1sc2ccccc2c1C` [Compound 74, N-(4-Fluoro-3-trifluoromethyl-benzyl)-N-(3-methyl-benzo[b]thiophen-2-yl)-1,3,5-trimethyl-1H-pyrazole-4-sulfonamide], the IC50 under setting [1] amounted to 0.021 µM. The inhibition at 0.2 µM under setting [2] worked out at 97%.

Usually IC50 stands for the concentration that gives 50% inhibition.
